Experimental findings from ChEMBL document CHEMBL5370637, “Receptor Interacting Ser/Thr-Protein Kinase 2 as a New Therapeutic Target” (J Med Chem, 2023) are described below.

Experiment [1] addresses T1, Receptor-interacting serine/threonine-protein kinase 2 (Homo sapiens, UniProt O43353). Briefly: Inhibition of recombinant RIPK2 (unknown origin) expressed in insect cells using RBER-CHKtide as substrate assessed as inhibition of tyrosine autophosphorylation preincubated with compound for 15 mins followed by substrate addition and measured after 30 mins. The arrangement: species or system Insect cell.

The target in experiment [2] is Epidermal growth factor receptor (Homo sapiens, UniProt P00533). Briefly: Inhibition of EGFR (unknown origin) by KINOMEscan assay.
Experiment [3] in a line: Inhibition of RIPK (unknown origin) by KINOMEscan assay. The arrangement: species or system Homo sapiens.
Experiment [4] addresses T1, Receptor-interacting serine/threonine-protein kinase 2. The experiment can be described thus: Inhibition of recombinant RIPK2 (unknown origin) using CRRKSLVGTPYWMAPE peptide as substrate assessed as inhibition of autophosphorylation incubated for 90 mins in presence of ATP by Transcreener ADP FP assay. Also on record: species or system Insect cell.
Experiment [5] concerns the target MAP kinase p38 (Homo sapiens, UniProt O15264+Q15759+Q16539+P53778). Briefly: Inhibition of p38 (unknown origin) by KINOMEscan assay. The format is protein assay.
In experiment [6] the target is T1, Receptor-interacting serine/threonine-protein kinase 2. Briefly: Inhibition of human RIPK2 assessed as inhibition of autophosphorylation incubated for 45 to 60 mins in presence of 32P-gamma-ATP by immunoprecipitation analysis.
Experiment [7] can be described thus: Induction of apoptosis in human GBM1 cells incubated for 48 hrs by immunofluorescent analysis. Type of experiment: functional, cell-based. As to conditions: GBM1, 48 h.
The target in experiment [8] is T1, Receptor-interacting serine/threonine-protein kinase 2. Briefly: Inhibition of RIPK2 (unknown origin).
Experiment [9] shares this target.

T1 sequence (O43353 whole entry): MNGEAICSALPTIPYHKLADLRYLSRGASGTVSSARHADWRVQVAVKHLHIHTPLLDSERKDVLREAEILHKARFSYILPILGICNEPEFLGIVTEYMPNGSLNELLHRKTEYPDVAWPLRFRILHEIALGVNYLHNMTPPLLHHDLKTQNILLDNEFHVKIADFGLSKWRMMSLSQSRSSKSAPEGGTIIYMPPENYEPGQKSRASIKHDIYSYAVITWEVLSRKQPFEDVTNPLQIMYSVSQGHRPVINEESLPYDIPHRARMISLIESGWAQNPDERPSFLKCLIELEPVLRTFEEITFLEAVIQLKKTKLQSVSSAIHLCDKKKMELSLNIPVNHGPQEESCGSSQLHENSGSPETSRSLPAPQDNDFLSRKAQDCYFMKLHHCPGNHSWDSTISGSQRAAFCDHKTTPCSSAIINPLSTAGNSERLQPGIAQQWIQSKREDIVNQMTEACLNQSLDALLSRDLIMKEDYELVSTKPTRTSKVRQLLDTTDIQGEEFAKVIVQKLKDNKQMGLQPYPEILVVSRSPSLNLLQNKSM
Epidermal growth factor receptor, sequence (P00533 whole entry): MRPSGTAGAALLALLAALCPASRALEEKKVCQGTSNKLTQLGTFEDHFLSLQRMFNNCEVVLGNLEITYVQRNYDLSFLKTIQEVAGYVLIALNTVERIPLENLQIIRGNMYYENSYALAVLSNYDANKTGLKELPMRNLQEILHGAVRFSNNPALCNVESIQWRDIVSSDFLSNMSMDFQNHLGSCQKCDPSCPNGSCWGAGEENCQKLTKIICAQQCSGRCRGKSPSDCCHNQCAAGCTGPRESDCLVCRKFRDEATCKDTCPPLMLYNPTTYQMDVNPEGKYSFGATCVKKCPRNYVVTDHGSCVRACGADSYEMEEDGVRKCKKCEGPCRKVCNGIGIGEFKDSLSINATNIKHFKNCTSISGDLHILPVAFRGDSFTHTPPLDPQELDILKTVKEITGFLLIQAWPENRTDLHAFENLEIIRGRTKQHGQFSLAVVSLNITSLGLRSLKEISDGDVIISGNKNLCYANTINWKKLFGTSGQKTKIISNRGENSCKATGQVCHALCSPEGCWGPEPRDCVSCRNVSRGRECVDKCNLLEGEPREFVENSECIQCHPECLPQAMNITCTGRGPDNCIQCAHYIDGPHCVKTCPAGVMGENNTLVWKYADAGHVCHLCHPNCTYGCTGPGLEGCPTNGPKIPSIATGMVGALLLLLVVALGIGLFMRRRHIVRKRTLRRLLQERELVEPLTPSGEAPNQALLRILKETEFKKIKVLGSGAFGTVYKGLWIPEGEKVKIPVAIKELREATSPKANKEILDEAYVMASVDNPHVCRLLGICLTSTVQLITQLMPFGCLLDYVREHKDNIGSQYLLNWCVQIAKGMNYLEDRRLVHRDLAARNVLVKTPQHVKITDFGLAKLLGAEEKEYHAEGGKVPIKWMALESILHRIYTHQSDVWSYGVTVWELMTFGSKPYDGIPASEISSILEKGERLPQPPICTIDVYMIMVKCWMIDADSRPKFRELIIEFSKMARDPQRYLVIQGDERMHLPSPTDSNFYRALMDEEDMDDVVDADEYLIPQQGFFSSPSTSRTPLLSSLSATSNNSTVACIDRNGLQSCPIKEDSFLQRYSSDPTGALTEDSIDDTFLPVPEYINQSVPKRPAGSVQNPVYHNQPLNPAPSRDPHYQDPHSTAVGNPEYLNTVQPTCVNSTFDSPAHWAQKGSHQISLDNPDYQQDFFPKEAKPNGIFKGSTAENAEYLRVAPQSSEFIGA

Turning to `Clc1cc2cc(c1)-c1cnn3ccc(nc13)NCCOCCO2`, the IC50 in experiment [1] is 0.0053 µM. Regarding `Cc1ccc(-c2nn(C(C)(C)CNC(=O)c3ccncc3)c3ncnc(N)c23)cc1`, the IC50 was above 10 µM in [2], above 10 µM in experiment [3], 0.134 µM in experiment [4] and above 10 µM in [5]. Take `Cc1ccc(C(=O)Nc2cccc(-c3nccn3C)c2)cc1NC(=O)c1ccccc1`: the IC50 in [6] amounted to 0.01 µM.

With `c1cc2cc(n1)NCCOCCNc1ccn3ncc-2c3n1`, the IC50 in [1] stood at 0.0141 µM.

`Cc1n(Cc2ccc(F)cc2)c2c([n+]1Cc1ccccc1)C(=O)c1ccccc1C2=O` gave an EC50 in [7] of 0.068 µM. `N=C(N)NCCC[C@@H]1NC(=O)/C(=C/c2c[nH]c3cc(Br)ccc23)NC1=O` [BARETTIN]: the IC50 in experiment [8] is 8 µM. For `O=[N+]([O-])c1ccc(-c2nc(-c3ccncc3)c(-c3ccc(F)cc3)[nH]2)cc1` [PD-169316], inhibition in experiment [9] was half-maximal at 0.07 µM (IC50). Still for that read-out and setting: next, `Nc1nccc(-c2c(-c3ccc(F)cc3)ncn2C2CCNCC2)n1` [SB-220025]: 0.7 µM.

A word on the IC50: it is the concentration needed to halve the response being measured. A word on the EC50: it is the concentration needed to bring the measured effect to its halfway point. Low readings indicate a more potent agent, high ones a less potent agent.
